Measurements reported in PubChem BioAssay (NCI).
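A five-concentration, 48-hour dose response in 96-well plates underlies each endpoint, interpolated linearly between surrounding concentrations. GI50 marks 50% less growth. Definition used: TGI = concentration required for complete inhibition of growth.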

Assays:
Experiment in all cases: NCI tumour cell line growth inhibition, 48 h
[1] = tested on: HOP-62 NSCLC
[2] = tested on: OVCAR-8 ovarian
[3] = tested on: HS 578T breast
[4] = tested on: BT-549 breast
[5] = tested on: PC-3 prostate
[6] = tested on: CCRF-CEM leukemia
[7] = tested on: MCF7 breast
[8] = tested on: RXF 393 renal
[9] = tested on: HCC-2998 colon
[10] = tested on: OVCAR-3 ovarian

SMILES | GI50 [1] [µM] | TGI [1] [µM] | GI50 [2] [µM] | TGI [2] [µM] | GI50 [3] [µM] | TGI [3] [µM] | GI50 [4] [µM] | TGI [4] [µM] | GI50 [5] [µM] | TGI [5] [µM] | GI50 [6] [µM] | TGI [6] [µM] | GI50 [7] [µM] | TGI [7] [µM] | GI50 [8] [µM] | TGI [8] [µM] | GI50 [9] [µM] | TGI [9] [µM] | GI50 [10] [µM] | TGI [10] [µM]
O=C(CC1Sc2ccccc2NC1=O)NNc1ccc(F)cc1 (stereo not given) | 66.3 | > 100 | 9.78 | > 100 | 72.4 | > 100 | > 100 | > 100 | 64.1 | > 100 | > 100 | > 100 | 52 | > 100 | > 100 | > 100 | 30.9 | > 100 | > 100 | > 100
CCC(C(=O)[C@@H](C)[C@@H](O)[C@H](C)[C@@H]1O[C@@H]([C@@H](CC)C(=O)ONC(=O)c2ccccc2)CC[C@@H]1C)[C@H]1O[C@]2(C=CC(=O)[C@]3(CC[C@@](C)([C@H]4CC[C@](O)(CC)[C@H](C)O4)O3)O2)[C@H](C)C[C@@H]1C (stereo not given in full) | 0.161 | 1.95 | 0.251 | 2.77 | 0.0991 | 2.58 | 0.146 | 1.97 | 0.0775 | 1.99 | 0.12 | 1.95 | 0.0869 | 1.62 | 0.0957 | 1.74 | 0.658 | 4.03 | 0.0849 | 1.29
CC(=O)c1ccc(Oc2c3ccccc3nc3occc23)cc1 | > 100 | > 100 | 3.33 | > 100 | 12.4 | 75.5 | 47.3 | > 100 | 9.77 | > 100 | 4.8 | > 100 | 4.08 | > 100 | 6.26 | 56.7 | 6.35 | 34 | 2.19 | 6.58
C=C1C(=O)O[C@H]2[C@H]1CC/C(COC(=O)/C=C\C(=O)NCc1ccc(Cn3c(=O)sn(-c4ccc(Cl)cc4)c3=O)cc1)=C\CC[C@@]1(C)O[C@@H]21 | 2.12 | 7.63 | 0.691 | 2.3 | 0.954 | 2.64 | 0.591 | 1.51 | 0.599 | 1.39 | 0.173 | 6.65 | 0.36 | 1.41 | 0.476 | 1.09 | 0.896 | 1.7 | 0.223 | 0.821
C=CCN1C(=O)[C@]2(SC1=S)[C@H](c1cccc(Cl)c1)CN(C)[C@]21C(=O)NC2C=CC(Cl)=C[C@H]21 (stereo not given in full) | 3.59 | 16.2 | 4.22 | 17.3 | 3.6 | 21.2 | 2.06 | 8.49 | 2.19 | 13 | 3.25 | 11.6 | 2.68 | 11.7 | 2.14 | 5.8 | 5.05 | 19.1 | 3.43 | 14.2
C=C1C(O)C2CC(C)(C)C(=O)C2=C(CC(C)C)C12CC2 (stereo not given) | > 100 | > 100 | > 100 | > 100 | > 100 | > 100 | > 100 | > 100 | > 100 | > 100 | 98.1 | > 100 | > 100 | > 100 | > 100 | > 100 | > 100 | > 100 | > 100 | > 100
CC(=O)/C=C/c1ccc(N(CCO)Cc2ccc(C(C)(C)C)cc2)cc1 | 104 | 231 | 62.9 | 210 | 80 | 297 | 47.8 | 178 | 32.2 | 128 | 49 | 208 | 26.5 | 118 | 65.5 | 208 | 152 | 321 | 60.3 | 187
Nc1nc(N)c(-c2ccc(Cl)c(Cl)c2)c(CP(Cl)(Cl)(Cl)Br)n1 | 72.7 | > 100 | 6.51 | > 100 | 24.4 | > 100 | 40.7 | > 100 | 5.31 | > 100 | 8.13 | > 100 | 16.1 | > 100 | 18.1 | > 100 | 19.9 | > 100 | 21.1 | > 100
CCC(=C(c1ccc(OCCN2CCCC2)cc1)c1ccc(OCCN2CCCC2)cc1)c1ccc(Cl)cc1 | 0.688 | 1.58 | 0.692 | 1.57 | 0.659 | 1.52 | 0.733 | 1.86 | 0.569 | 1.2 | 0.601 | 1.58 | 0.287 | 0.822 | 0.545 | 1.04 | 0.566 | 1.07 | 0.624 | 1.29
COc1ccc2nc3ccccc3c(NCc3ccccc3)c2c1 | 2.62 | 9.95 | 2.76 | 9.32 | 2.19 | 5.57 | 2.16 | 5.18 | 2.35 | 7.39 | 2.8 | 11.7 | 2.01 | 4.89 | 1.53 | 3.13 | 1.86 | 3.77 | 2.65 | 6.89
OCC1OC(n2cnc3c(NCc4ccco4)ncnc32)C(O)C1O (stereo not given) | 3.79 | > 48.9 | 0.16 | 3.6 | 3.38 | > 100 | 0.421 | 2.64 | 1.33 | 19.1 | 0.43 | 5.4 | 0.72 | > 25.5 | 2.21 | 15 | 3.85 | 40 | 1.34 | 3.12
O=C1c2ccccc2C(=O)c2sc(Nc3ccc([N+](=O)[O-])cc3)nc21 | – | 27.1 | – | 13.7 | – | 22.2 | – | 27.4 | – | 19.9 | – | 5.37 | – | 31 | – | 9.71 | – | 30.1 | – | 6.82
